The text below walks through data of patent publication US8343515B2, “Perfluorocarbon gel formulations” (Oxygen Biotherapeutics, Inc., priority 2008, dated 2013).

One data set deals with skin tissue. The data set is described as follows: Measuring oxygen tension in tissue with fluorescent marker (Example 4). The class given is in vivo. Particulars: fluorescent marker injected into skin area treated with PFC or PFC gel. The procedure: A material which binds oxygen (fluorescent marker) is injected into skin tissue. The combination is fluorescent and the more oxygen that is present, the stronger the fluorescent signal. (representing the oxygen tension in the tissue). First it is determined that fluorescence chemistry is unaffected by the PFCs and poloxamers. Then as a control, the fluorescent marker is injected into the skin, and oxygen tension is obtained. Finally, the same area is treated with a PFC or a PFC gel and oxygen tension is again obtained.

The conditions of data set [1]: 25° C.; cited from earlier work.
A short description of data set [2]: Physical properties of perfluoro(tert-butylcyclohexane). The class given is physicochemical. From the text:
Physical properties of perfluoro(tert-butylcyclohexane) are as follows: […]

The nature of data set [3]: Water solubility and lipophilicity (descriptive). The data set is classed as physicochemical.
A short description of data set [4]: Gas solubility / Henry's Law sorption of oxygen and CO2 in the liquid. The data set is classed as physicochemical. How it is done: The amount of dissolved oxygen in the liquid is measured after equilibration with a gas. The partial pressure of the gas (here, oxygen) is varied. The partial pressure of oxygen in air is 0.21 atm.
The amount of oxygen dissolved in each when the liquids are at equilibrium with the oxygen in the air can be found from the Henry's Law sorption isotherms for the liquids sketched in FIG. 2.
When the solubility of a gas in a liquid is measured, the solubility is nearly always a linear function of the partial pressure of the gas.

Setting [5] is: used for conversion to weight basis.

Usually density stands for the mass of a sample divided by its volume.

Read-outs that look alike come from different tables or passages of the source.

As to “perfluoroisopropyldecalin [APF-200, reference compound]”, in the data set on skin tissue, the “oxygen tension in tissue” value is “substantially increases local oxygen tension in the tissue”.

Turning to water, in data set [1], the “Henry's law constant for oxygen” value was “about 8.3 mg O2/L/atm”. This molecule also came in with a density in data set [2] (setting [5]) of 1000 g/L.

`FC(F)(F)C(C(F)(F)F)(C(F)(F)F)C1(F)C(F)(F)C(F)(F)C(F)(F)C(F)(F)C1(F)F` [perfluoro(tert-butylcyclohexane)]: in data set [3], the “lipophilicity” value is on record as “non-lipophilic” and the “solubility in water” value is recorded as “non-water soluble”. In data set [3] (at body temperature), the “lipophilicity” value is “only slightly lipophilic”. Moreover, the “lipophilicity” value in data set [3] (at room temperature) is on record as “not lipophilic”. Moreover, in data set [4], the CO2 carried was 196 mL of CO2 per 100 mL of PFC, the oxygen carried entry is reported as “about 43 mL of oxygen per 100 mL of PFC” and the “oxygen held in contact with air” value is “about 126 mg O2”. In addition, in data set [1], the “Henry's law constant for oxygen” value is on record as “about 600 mg O2/L/atm”. In addition, in data set [2], the “Kinematic Viscosity (cP)” value is on record as 5.378 cP and the “density” value worked out at 1970 g/L. Also, the “Vapor Pressure (mmHg) @ 25° C.” value in data set [2] (25° C.) is listed as 3.8 mmHg. Further, the “Vapor Pressure (mmHg) @ 37° C.” value in data set [2] (37° C.) was 4.4 mmHg. Moreover, the density in data set [2] (setting [5]) is reported as 1966 g/L. The “oxygen tension in tissue” value with skin tissue was “substantially increases local oxygen tension in the tissue”.
